Results from patent publication US20220041588A1, “SUBSTITUTED IMIDAZO[1,2-A]PYRIDINE AND [1,2,4]TRIAZOLO[1,5-A]PYRIDINE COMPOUNDS AS RET KINASE INHIBITORS” (FOCHON PHARMACEUTICALS, LTD., priority 2018, published 2022).

Legend:
TT (RET C634W) cells = assay: Cell proliferation assay (MTS), TT cells; type: cell-based; details: Homo sapiens, TT, 72 h, 72 h incubation, MTS readout
Procedure: (§1) MTS testing kit was purchased from Promega. The RPMI-1640, F12, F12K, Fetal bovine serum and Penicillin-Streptomycin were purchased from BI. Glutamine and Dimethyl sulfoxide (DMSO) were purchased from Sigma. TT cells were cultured in F12K supplemented with 10% FBS and LC-2/ad cells were cultured in HamF12: RPMI1640 (1:1) supplemented with 10% FBS and 2 mM Glutamine.
(§2) To investigate whether a compound is able to inhibit the activity of RET fusion and/or mutation in cells, a mechanism-based assay using TT (RET C634W) and LC-2/ad (CCDCl6-RET) cell lines was developed. In this assay, the inhibition of RET fusion and/or mutation was reflected by the inhibition of cell proliferation of TT and LC-2/ad cells. Cells were plated into 96-well plates at the optimized cell density (TT: 5000 cells/well; LC-2/ad: 5000 cells/well). Plates were incubated at 37° C., with 5% CO2 for 24 h. Compounds were serially diluted and added to the plates with the final concentrations as 10000, 3333.3, 1111.1, […], 123.5, 41.2, 13.7, 4.6 and 1.5 nM. Plates were incubated at 37° C., with 5% CO2 for 72 h. An aliquot of 20 μL MTS/100 μL medium mixture solution were added to each well and the plates were incubated for exactly 2 h. The reaction was stopped by adding 25 μL 10% SDS to each well. The absorbance was measured by a microplate reader at 490 nm and 650 nm (reference wavelength). IC50 was calculated using GraphPad Prism 5.0.

[1] = system: LC-2/ad (CCDCl6-RET) cells; assay: Cell proliferation assay (MTS), LC-2/ad cells; type: cell-based; details: Homo sapiens, LC-2-ad, 72 h, LC-2/ad cells (CCDCl6-RET), 72 h incubation, MTS readout
Procedure: as §1, §2

| Compound | IC50 (TT (RET C634W) cells) [nM] | IC50 [1] [nM] |
| --- | --- | --- |
| COc1ccc(C(=O)N2CCN(c3ccc(-c4cc(-c5cnn(C)c5)cc5ncc(C#N)n45)cn3)CC2)cn1 [Example 2, 5-(6-(4-(6-Methoxynicotinoyl)piperazin-1-yl)pyridin-3-yl)-7-(1-methyl-1H-pyrazol-4-yl)imidazo[1,2-a]pyridine-3-carbonitrile] | 63 | 54 |
| Cc1cccc(CN2CCN(c3ccc(-c4cc(-c5cnn(C)c5)cc5ncc(C#N)n45)cn3)CC2)n1 [Example 5, 7-(1-methyl-1H-pyrazol-4-yl)-5-(6-(4-((6-methylpyridin-2-yl)methyl)pi-perazin-1-yl)pyridin-3-yl)imidazo[1,2-a]pyridine-3-carbonitrile] | 71 | 80 |
| COc1ccc(CN2CCN(c3ccc(-c4cc(-c5cnn(C)c5)cc5ncc(C#N)n45)cn3)CC2)cn1 [Example 6, 5-(6-(4-((6-methoxypyridin-3-yl)meth-yl)piperazin-1-yl)pyridin-3-yl)-7-(1-methyl-1H-pyrazol-4-yl)imidazo[1,2-a]pyridine-3-carbonitrile] | 42 | 44 |
| Cn1cc(-c2cc(-c3ccc(N4CCN(C(=O)[C@H](O)c5ccccc5)CC4)nc3)n3c(C#N)cnc3c2)cn1 [Example 7, (R)-5-(6-(4-(2-hydroxy-2-phenylace-tyl)piperazin-1-yl)pyridin-3-yl)-7-(1-methyl-1H-pyrazol-4-yl)imidazo[1,2-a]pyridine-3-carbonitrile] | 11 | 16 |
| CO[C@@H](C(=O)N1CCN(c2ccc(-c3cc(-c4cnn(C)c4)cc4ncc(C#N)n34)cn2)CC1)c1ccccc1 [Example 14, (R)-5-(6-(4-(2-methoxy-2-phenylace-tyl)piperazin-1-yl)pyridin-3-yl)-7-(1-methyl-1H-pyrazol-4-yl)imidazo[1,2-a]pyridine-3-carbonitrile] | 6 | 13 |
| CC(C)[C@@H](O)C(=O)N1CCN(c2ccc(-c3cc(-c4cnn(C)c4)cc4ncc(C#N)n34)cn2)CC1 [Example 17, (R)-5-(6-(4-(2-hydroxy-3-methylbuta-noyl)piperazin-1-yl)pyridin-3-yl)-7-(1-methyl-1H-pyrazol-4-yl)imidazo [1,2-a]pyridine-3-carbonitrile] | 48 | 45 |
| Cn1cc(-c2cc(-c3ccc(N4CCC(Oc5ccccn5)CC4)nc3)n3c(C#N)cnc3c2)cn1 [Example 18, 7-(1-methyl-1H-pyrazol-4-yl)-5-(6-(4-(pyridin-2-yloxy)piperidin-1-yl)pyr-idin-3-yl)imidazo[1,2-a]pyridine-3-carbonitrile] | 1 | 2 |
| COc1ccc(OC2CCN(c3ccc(-c4cc(-c5cnn(C)c5)cc5ncc(C#N)n45)cn3)CC2)nn1 [Example 19, 5-(6-(4-((6-methoxypyridazin-3-yl)oxy)piperidin-1-yl)pyridin-3-yl)-7-(1-methyl-1H-pyrazol-4-yl)imidazo[1,2-a]pyridine-3-carbonitrile] | 1 | 6 |
| Cc1ccc(OC2CCN(c3ccc(-c4cc(-c5cnn(C)c5)cc5ncc(C#N)n45)cn3)CC2)nn1 [Example 20, 7-(1-methyl-1H-pyrazol-4-yl)-5-(6-(4-((6-methylpyridazin-3-yl)oxy)piper-idin-1-yl)pyridin-3-yl)imidazo[1,2-a]pyridine-3-carbonitrile] | 6 | 17 |
| Cn1cc(-c2cc(-c3ccc(N4CCC(O)(Cc5ccccn5)CC4)nc3)n3c(C#N)cnc3c2)cn1 [Example 21, 5-(6-(4-hydroxy-4-(pyridin-2-ylmeth-yl)piperidin-1-yl)pyridin-3-yl)-7-(1-methyl-1H-pyrazol-4-yl)imidazo[1,2-a]pyridine-3-carbonitrile] | 12 | 12 |
| Cn1cc(-c2cc(-c3ccc(N4CCC(O)(Cc5ccccc5)CC4)nc3)n3c(C#N)cnc3c2)cn1 [Example 22, 5-(6-(4-benzyl-4-hydroxypiperidin-1-yl)pyridin-3-yl)-7-(1-methyl-1H-pyr-azol-4-yl)imidazo[1,2-a]pyridine-3-carbonitrile] | 4 | 1 |
| COc1ccc(CN2CCN(c3ccc(-c4cc(-c5cnn(CCN6CCOCC6)c5)cc5ncc(C#N)n45)cn3)CC2)cn1 [Example 26, 5-(6-(4-((6-methoxypyridin-3-yl)meth-yl)piperazin-1-yl)pyridin-3-yl)-7-(1-(2-morpholinoethyl)-1H-pyrazol-4-yl)imidazo[1,2-a]pyridine-3-carbonitrile] | 74 | 89 |
| C#Cc1ccc(OC2CCN(c3ccc(-c4cc(OCC5(O)CC5)cc5ncc(C#N)n45)cn3)CC2)cn1 [Example 81, 5-(6-(4-((6-ethynylpyridin-3-yl)oxy)piper-idin-1-yl)pyridin-3-yl)-7-((1-hydroxycyclo-propyl)methoxy)imidazo-[1,2-a]pyridine-3-carbonitrile] | 5 | – |
| C=Cc1ccc(OC2CCN(c3ccc(-c4cc(OCC(C)(C)O)cc5ncc(C#N)n45)cn3)CC2)cn1 [Example 82, 7-(2-hydroxy-2-methylpropoxy)-5-(6-(4-((6-vinylpyridin-3-yl)oxy)piperidin-1-yl)pyridin-3-yl)imidazo[1,2-a]pyridine-3-car-bonitrile] | 15 | – |
| C=Cc1ccc(OC2CCN(c3ccc(-c4cc(OCC5(O)CC5)cc5ncc(C#N)n45)cn3)CC2)cn1 [Example 83, 7-((1-hydroxycyclopropyl)methoxy)-5-(6-(4-((6-vinylpyridin-3-yl)oxy)piperidin-1-yl)pyridin-3-yl)imidazo[1,2-a]pyridine-3-carbonitrile] | 17 | – |
| CC(C)(O)COc1cc(-c2ccc(N3CCC(Oc4ccc(OC5CC5)nc4)CC3)nc2)n2c(C#N)cnc2c1 [Example 84, 5-(6-(4-((6-cyclopropoxypyridin-3-yl)oxy)piperidin-1-yl)pyridin-3-yl)-7-(2-hydroxy-2-methylpropoxy)imidazo[1,2-a]pyri-dine-3-carbonitrile] | 21 | – |
| N#Cc1cnc2cc(OCC3(O)CC3)cc(-c3ccc(N4CCC(Oc5ccc(OC6CC6)nc5)CC4)nc3)n12 [Example 85, 5-(6-(4-((6-cyclopropoxypyridin-3-yl)oxy)piperidin-1-yl)pyridin-3-yl)-7-((1-hy-droxycyclopropyl)methoxy)imidazo[1,2-a] pyridine-3-carbonitrile] | 12 | – |
| COc1ncc(OC2CCN(c3ccc(-c4cc(OCC5(O)CC5)cc5ncc(C#N)n45)cn3)CC2)cc1F [Example 87, 5-(6-(4-((5-fluoro-6-methoxypyridin-3-yl)oxy)piperidin-1-yl)pyridin-3-yl)-7-((1-hydroxycyclopropyl)methoxy)imidazo[1,2-a]pyridine-3-carbonitrile] | 38 | – |
| CCOc1ccc(OC2CCN(c3ccc(-c4cc(OCC(C)(C)O)cc5ncc(C#N)n45)cn3)CC2)cn1 [Example 88, 5-(6-(4-((6-ethoxypyridin-3-yl)oxy)piperi-din-1-yl)pyridin-3-yl)-7-(2-hydroxy-2-meth-ylpropoxy)imidazo[1,2-a]pyridine-3-car-bonitrile] | 2 | – |
| COc1ccc(O[C@H]2CCN(c3ccc(-c4cc(OCC(C)(C)O)cc5ncc(C#N)n45)cn3)C2)cn1 [Example 89, (S)-7-(2-hydroxy-2-methylpropoxy)-5-(6-(3-((6-methoxypyridin-3-yl)oxy)pyrrolidin-1-yl)pyridin-3-yl)imidazo[1,2-a]pyridine-3-carbonitrile] | 45 | – |
| COc1ccc(O[C@H]2CCN(c3ccc(-c4cc(OCC5(O)CC5)cc5ncc(C#N)n45)cn3)C2)cn1 [Example 90, (S)-7-((1-hydroxycyclopropyl)methoxy)-5-(6-(3-((6-methoxypyridin-3-yl)oxy)pyr-rolidin-1-yl)pyridin-3-yl)imidazo[1,2-a] pyridine-3-carbonitrile] | 13 | – |
| COc1ccc(OC2CN(c3ccc(-c4cc(OCC5(O)CC5)cc5ncc(C#N)n45)cn3)C2)cn1 [Example 92, 7-((1-hydroxycyclopropyl)methoxy)-5-(6-(3-((6-methoxypyridin-3-yl)oxy)azetidin-1-yl)pyridin-3-yl)imidazo[1,2-a]pyridine-3-carbonitrile] | 87 | – |
| COc1ccc(OC2CN(c3ccc(-c4cc(OCC(C)(C)O)cc5ncc(C#N)n45)cn3)C2)cn1 [Example 93, 7-(2-hydroxy-2-methylpropoxy)-5-(6-(3-((6-methoxypyridin-3-yl)oxy)azetidin-1-yl)pyridin-3-yl)imidazo[1,2-a]pyridine-3-carbonitrile] | 39 | – |
| COc1ccc(O[C@@H]2CCN(c3ccc(-c4cc(OCC(C)(C)O)cc5ncc(C#N)n45)cn3)C2)cn1 [Example 95, (R)-7-(2-hydroxy-2-methylpropoxy)-5-(6-(3-((6-methoxypyridin-3-yl)oxy)pyrrolidin-1-yl)pyridin-3-yl)imidazo[1,2-a]pyridine-3-carbonitrile] | 7 | – |
| COc1ccc(O[C@@H]2CCN(c3ccc(-c4cc(OCC5(O)CC5)cc5ncc(C#N)n45)cn3)C2)cn1 [Example 96, (R)-7-((1-hydroxycyclopropyl)methoxy)-5-(6-(3-((6-methoxypyridin-3-yl)oxy)pyr-rolidin-1-yl)pyridin-3-yl)imidazo[1,2-a] pyridine-3-carbonitrile] | 9 | – |
